Results published in US8802597B2, “Herbicidal pyrimidines” (E I du Pont de Nemours and Company, priority 2003, dated 2014).

Legend:
Assay type in all cases: in vivo
[1] = tested on: redroot pigweed (Amaranthus retroflexus); experiment: Test A pre/postemergence
Summary of the method: (§1)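 After planting in loam and sand, species received test chemical as preemergence soil spray; postemergence spray went on 2–10 cm plants at 1–2 leaves at the same time. Evaluation: visual injury, ~10 d, 0 no effect to 100 complete control.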

[2] = tested on: crabgrass (Digitaria sanguinalis); experiment: Test A pre/postemergence
Summary of the method: as §1

[3] = tested on: velvetleaf (Abutilon theophrasti); experiment: Test A pre/postemergence
Summary of the method: as §1

[4] = tested on: morningglory (Ipomoea spp.); experiment: Test A pre/postemergence
Summary of the method: as §1

[5] = tested on: barnyardgrass (Echinochloa crus-galli); experiment: Test A pre/postemergence
Summary of the method: as §1

[6] = tested on: giant foxtail (Setaria faberi); experiment: Test A pre/postemergence
Summary of the method: as §1

[7] = tested on: purple redstem (Ammannia coccinea); experiment: Test E flooded paddy water application; conditions: Flood, 21 days, scale 0 to 100 (0 no effect, 100 complete control)
Summary of the method: (§2)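 Weeds sown in sterilized Tama silt loam (2.6% organic matter), greenhouse 29.5/26.7° C, 16-h photoperiod; at 2.0–2.5-leaf stage pots flooded to 3 cm and compound added to paddy water. Visual rating vs untreated controls after 21 days, 0 (no effect) to 100 (complete control).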

[8] = tested on: smallflower umbrella sedge (Cyperus difformis); experiment: Test E flooded paddy water application; conditions: Flood, 21 days, scale 0 to 100 (0 no effect, 100 complete control)
Summary of the method: as §2

[9] = tested on: bearded (brdd.) sprangletop (Leptochloa fusca ssp. fascicularis); experiment: Test E flooded paddy water application; conditions: Flood, 21 days, scale 0 to 100 (0 no effect, 100 complete control)
Summary of the method: as §2

[10] = tested on: early watergrass (Echinochloa oryzoides); experiment: Test E flooded paddy water application; conditions: Flood, 21 days, scale 0 to 100 (0 no effect, 100 complete control)
Summary of the method: as §2

[11] = tested on: rice flatsedge (Cyperus iria); experiment: Test E flooded paddy water application; conditions: Flood, 21 days, scale 0 to 100 (0 no effect, 100 complete control)
Summary of the method: as §2

[12] = tested on: junglerice (Echinochloa colona); experiment: Test E flooded paddy water application; conditions: Flood, 21 days, scale 0 to 100 (0 no effect, 100 complete control)
Summary of the method: as §2

[13] = tested on: water seeded rice seedlings (Oryza sativa cv. ‘Japonica-M202’); experiment: Test E flooded paddy water application; conditions: Flood, 21 days, scale 0 to 100 (0 no effect, 100 complete control)
Summary of the method: as §2

[14] = tested on: transplanted rice seedlings (Oryza sativa cv. ‘Japonica-M202’); experiment: Test E flooded paddy water application; conditions: Flood, 21 days, scale 0 to 100 (0 no effect, 100 complete control)
Summary of the method: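 Greenhouse pots of Tama silt loam with weeds and rice at 2.0–2.5-leaf stage, flooded to 3 cm; compounds applied directly into paddy water, depth maintained. Visual rating versus untreated controls after 21 days, 0 (no effect) to 100 (complete control); 29.5/26.7 °C, 16-h photoperiod.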

[15] = tested on: barnyardgrass (Echinochloa crus-galli); experiment: Test E flooded paddy water application; conditions: Flood, 21 days, scale 0 to 100 (0 no effect, 100 complete control)
Summary of the method: as §2

[16] = tested on: ducksalad (Heteranthera limosa); experiment: Test E flooded paddy water application; conditions: Flood, 21 days, scale 0 to 100 (0 no effect, 100 complete control)
Summary of the method: as §2

[17] = tested on: late watergrass (Echinochloa oryzicola); experiment: Test E flooded paddy water application; conditions: Flood, 21 days, scale 0 to 100 (0 no effect, 100 complete control)
Summary of the method: as §2

[18] = Postemergence, 125 g ai/ha, 0 to 100 scale (0 no effect, 100 complete control)
[19] = Postemergence, 500 g ai/ha, 0 to 100 scale (0 no effect, 100 complete control)
[20] = Preemergence, 125 g ai/ha, 0 to 100 scale where 0 is no effect and 100 is complete control, approximately ten days
[21] = Preemergence, 500 g ai/ha, 0 to 100 scale where 0 is no effect and 100 is complete control, approximately ten days

## CCOC(=O)c1nc(-c2ccc(C)cc2)nc(N)c1Cl [Compound 62]
[1]; [18]
  Plant response rating, Pigweed: 30
[1]; [19]
  Plant response rating, Pigweed: 60
[1]; [20]
  Plant response rating, Pigweed: 0
[1]; [21]
  Plant response rating, Pigweed: 75
[2]; [18]
  Plant response rating, Crabgrass: 0
[2]; [19]
  Plant response rating, Crabgrass: 35
[2]; [20]
  Plant response rating, Crabgrass: 0
[2]; [21]
  Plant response rating, Crabgrass: 60
[3]; [18]
  Plant response rating, Velvetleaf: 90
[3]; [19]
  Plant response rating, Velvetleaf: 95
[3]; [20]
  Plant response rating, Velvetleaf: 0
[3]; [21]
  Plant response rating, Velvetleaf: 75
[4]; [18]
  Plant response rating, Morningglory: 10
[4]; [19]
  Plant response rating, Morningglory: 35
[4]; [20]
  Plant response rating, Morningglory: 0
[4]; [21]
  Plant response rating, Morningglory: 35
[5]; [18]
  Plant response rating, Barnyardgrass: 15
[5]; [19]
  Plant response rating, Barnyardgrass: 80
[5]; [20]
  Plant response rating, Barnyardgrass: 0
[5]; [21]
  Plant response rating, Barnyardgrass: 45
[6]; [18]
  Plant response rating, Foxtail, Giant: 0
[6]; [19]
  Plant response rating, Foxtail, Giant: 80
[6]; [20]
  Plant response rating, Foxtail, Giant: 0
[6]; [21]
  Plant response rating, Foxtail, Giant: 0
[7]; 32 g ai/ha
  Redstem plant response rating: 75
[7]; 64 g ai/ha
  Redstem plant response rating: 85
[7]; 125 g ai/ha
  Redstem plant response rating: 85
[7]; 250 g ai/ha
  Redstem plant response rating: 95
[7]; 500 g ai/ha
  Redstem plant response rating: 100
[8]; 32 g ai/ha
  Sedge, Umbrella plant response rating: 70
[8]; 64 g ai/ha
  Sedge, Umbrella plant response rating: 80
[8]; 125 g ai/ha
  Sedge, Umbrella plant response rating: 95
[8]; 250 g ai/ha
  Sedge, Umbrella plant response rating: 100
[8]; 500 g ai/ha
  Sedge, Umbrella plant response rating: 100
[9]; 32 g ai/ha
  Sprangletop, Brdd. plant response rating: 0
[9]; 64 g ai/ha
  Sprangletop, Brdd. plant response rating: 0
[9]; 125 g ai/ha
  Sprangletop, Brdd. plant response rating: 30
[9]; 250 g ai/ha
  Sprangletop, Brdd. plant response rating: 45
[9]; 500 g ai/ha
  Sprangletop, Brdd. plant response rating: 75
[10]; 32 g ai/ha
  Watergrass, Early plant response rating: 0
[10]; 64 g ai/ha
  Watergrass, Early plant response rating: 0
[10]; 125 g ai/ha
  Watergrass, Early plant response rating: 0
[10]; 250 g ai/ha
  Watergrass, Early plant response rating: 0
[10]; 500 g ai/ha
  Watergrass, Early plant response rating: 0
[11]; 32 g ai/ha
  Flatsedge, Rice plant response rating: 0
[11]; 64 g ai/ha
  Flatsedge, Rice plant response rating: 0
[11]; 125 g ai/ha
  Flatsedge, Rice plant response rating: 45
[11]; 250 g ai/ha
  Flatsedge, Rice plant response rating: 65
[11]; 500 g ai/ha
  Flatsedge, Rice plant response rating: 100
[12]; 32 g ai/ha
  Junglerice plant response rating: 20
[12]; 64 g ai/ha
  Junglerice plant response rating: 30
[12]; 125 g ai/ha
  Junglerice plant response rating: 40
[12]; 250 g ai/ha
  Junglerice plant response rating: 50
[12]; 500 g ai/ha
  Junglerice plant response rating: 65
[13]; 32 g ai/ha
  Rice, Water Seeded plant response rating: 0
[13]; 64 g ai/ha
  Rice, Water Seeded plant response rating: 0
[13]; 125 g ai/ha
  Rice, Water Seeded plant response rating: 0
[13]; 250 g ai/ha
  Rice, Water Seeded plant response rating: 10
[13]; 500 g ai/ha
  Rice, Water Seeded plant response rating: 60
[14]; 32 g ai/ha
  Rice, Transplanted plant response rating: 0
[14]; 64 g ai/ha
  Rice, Transplanted plant response rating: 0
[14]; 125 g ai/ha
  Rice, Transplanted plant response rating: 0
[14]; 250 g ai/ha
  Rice, Transplanted plant response rating: 0
[14]; 500 g ai/ha
  Rice, Transplanted plant response rating: 30
[15]; 32 g ai/ha
  Barnyardgrass plant response rating: 0
[15]; 64 g ai/ha
  Barnyardgrass plant response rating: 0
[15]; 125 g ai/ha
  Barnyardgrass plant response rating: 0
[15]; 250 g ai/ha
  Barnyardgrass plant response rating: 50
[15]; 500 g ai/ha
  Barnyardgrass plant response rating: 100
[16]; 32 g ai/ha
  Ducksalad plant response rating: 100
[16]; 64 g ai/ha
  Ducksalad plant response rating: 100
[16]; 125 g ai/ha
  Ducksalad plant response rating: 100
[16]; 250 g ai/ha
  Ducksalad plant response rating: 100
[16]; 500 g ai/ha
  Ducksalad plant response rating: 100
[17]; 32 g ai/ha
  Watergrass, Late plant response rating: 0
[17]; 64 g ai/ha
  Watergrass, Late plant response rating: 20
[17]; 125 g ai/ha
  Watergrass, Late plant response rating: 20
[17]; 250 g ai/ha
  Watergrass, Late plant response rating: 20
[17]; 500 g ai/ha
  Watergrass, Late plant response rating: 20
